The results in this text go back to US9930889B2, “Synergistic weed control from applications of penoxsulam and mefenacet” (Dow AgroSciences LLC, priority 2012, dated 2018).

Assay in all cases: Field trial in flooded transplanted rice, % visual weed control
What all share (format): in vivo

Assay [1] relates to Eleocharis kuroguwai (kuro-guwai, ELOKU). From the text:
(§1) The (a) penoxsulam or an agriculturally acceptable salt thereof is mixed with or applied in combination with (b) mefenacet or an agriculturally acceptable salt thereof in an amount sufficient to induce a synergistic herbicidal effect. […] As described in the Herbicide Handbook of the Weed Science Society of America, Ninth Edition, 2007, p. 429, ′″synergism′ [is] an interaction of two or more factors such that the effect when combined is greater than the predicted effect based on the response to each factor applied separately.” Synergistic in the herbicide context can mean that the use of (a) and (b) as defined above results in an increased weed control effect compared to the weed control effects that are possible with the use of (a) or (b) alone. In some embodiments, the damage or injury to the undesired vegetation caused by the compositions and methods disclosed herein is evaluated using a scale from 0% to 100%, when compared with the untreated control vegetation, wherein 0% indicates no damage to the undesired vegetation and 100% indicates complete destruction of the undesired vegetation. […] 22 (1967)
(§2) Field trials were conducted in Japan with applications made in the area of naturally occurring weed populations. All treatments were applied using a randomized complete block trial design, with 3 replications per treatment. Plot size was 2 meters (m)×2 m (width×length), with each plot being a separate entity and flooded with water. Rice was transplanted into the plots, and the rice crop was maintained as a normal commercial crop with appropriate fertilizer and maintenance treatments as needed. Rice size at application varied from 4 leaf to 2 tiller stage, and weeds were 1 to 5 leaf stage. All plots were maintained flooded to 3 to 6 centimeter (cm) depth and treatments were applied by hand directly into the flooded plots containing the rice and weeds.
(§3) Treatments consisted of penoxsulam and mefenacet, applied alone or in combination. Penoxsulam was applied as a granule formulation (3.5 grams of active ingredient per kilogram (g ai/kg) granule (GR)) applied directly into the flooded plots, or as a liquid formulation (31 grams of active ingredient per liter (g ai/L) emulsifiable concentrate (EC)) mixed in 1 liter (L) of solution and applied into the flooded plots. Mefenacet, as the commercial product HINOCHLOA® containing 40 g ai/kg GR, was applied directly into the flooded plots.
(§4) The treated plots and control plots were rated blind at various intervals after application. Ratings were based on a scale of 0-100%, as discussed above, wherein 0% indicates complete growth of the undesired vegetation and 100% indicates complete prevention of the undesired vegetation.
(§5) Colby's equation was used to determine the herbicidal effects expected from the mixtures, as described above. The results were measured at the evaluation intervals provided in Table 1 after the application of the compositions (penoxsulam and mefenacet, applied alone or in combination). […] The herbicide tank mix combinations tested, application rates and ratios employed, plant species tested, and results are included in Table 1 below.

Assay [2] concerns Sagittaria pygmaea (dwarf arrowhead, SAGPY). Conditions: 44 days.
Text: as §1, §2, §3, §4, §5

Assay [3] concerns Echinochloa crus-galli (barnyard grass, ECHCG). Conditions: 42 days.
Text: as §1, §2, §3, §4, §5

Assay [4] deals with Lindernia procumbens (common false pimpernel, LIDPY). Conditions: for Penoxsulam Mean % weed control: 18 g ai/ha.
Text: as §1, §2, §3, §4, §5

For `CN(C(=O)COc1nc2ccccc2s1)c1ccccc1` [Mefenacet, 2-(2-benzothiazolyloxy)-N-methyl-N-phenylacetamide], the “Mefenacet Mean % weed control” value is 0% in assay [1] (34 days, 500 g ai/ha); 0% in assay [1] (34 days, 750 g ai/ha); 0% in assay [1] (34 days, 1000 g ai/ha); 23% in assay [1] (44 days, 1000 g ai/ha); 33% in assay [1] (52 days, 750 g ai/ha); 20% in assay [1] (52 days, 1000 g ai/ha). The “Mefenacet Mean % weed control” value is given as 0% in assay [1] (61 days, 1000 g ai/ha); 0% in assay [2] (500 g ai/ha); 0% in assay [2] (750 g ai/ha); 40% in assay [3] (750 g ai/ha); 43% in assay [4] (18 days, 500 g ai/ha); 50% in assay [4] (18 days, 750 g ai/ha). In addition, the “Mefenacet Mean % weed control” value was determined as 57% in assay [4] (18 days, 1000 g ai/ha); 0% in assay [4] (23 days, 500 g ai/ha); 27% in assay [4] (23 days, 750 g ai/ha); 0% in assay [4] (24 days, 500 g ai/ha); 0% in assay [4] (42 days, 500 g ai/ha).

In the case of `COc1cnc(OC)n2nc(NS(=O)(=O)c3c(OCC(F)F)cccc3C(F)(F)F)nc12` [Penoxsulam], the “Penoxsulam Mean % weed control” value worked out at 62% in assay [1] (34 days, 18 g ai/ha); 81% in assay [1] (44 days, 70 g ai/ha); 34% in assay [1] (52 days, 18 g ai/ha); 62% in assay [1] (52 days, 35 g ai/ha); 71% in assay [1] (52 days, 70 g ai/ha); 49% in assay [1] (61 days, 35 g ai/ha). The “Penoxsulam Mean % weed control” value turned out to be 61% in assay [1] (61 days, 70 g ai/ha); 82% in assay [2] (35 g ai/ha); 81% in assay [3] (18 g ai/ha); 73% in assay [4] (18 days); 87% in assay [4] (23 days); 86% in assay [4] (24 days). Further, the “Penoxsulam Mean % weed control” value in assay [4] (42 days) was 83%.
